Reference: PMC7531286 (Phytomedicine, 2020)

Tests used:
[1] = target: MERS-CoV spike protein (S1 subunit, His tag) (Middle East respiratory syndrome-related coronavirus, UniProt K9N5Q8); assay: biochemical; type: binding
[2] = target: SARS-CoV-2 spike protein (S1 subunit, His tag) (Severe acute respiratory syndrome coronavirus 2, UniProt P0DTC2); assay: biochemical; type: binding
[3] = target: SARS-CoV spike protein (S1 subunit, His tag) (Severe acute respiratory syndrome coronavirus, UniProt P59594); assay: biochemical; type: binding
[4] = system: mouse aorta smooth muscle cells (MASMCs); assay: MTT cell toxicity assay, MASMCs; conditions: at high concentrations (100 μM)
[5] = target: SARS-CoV-2 S-RBD/ACE2 interaction (Severe acute respiratory syndrome coronavirus 2, UniProt P0DTC2); type: cell-based

MERS-CoV spike protein (S1 subunit, His tag), sequence (K9N5Q8 18-751 limits assumed): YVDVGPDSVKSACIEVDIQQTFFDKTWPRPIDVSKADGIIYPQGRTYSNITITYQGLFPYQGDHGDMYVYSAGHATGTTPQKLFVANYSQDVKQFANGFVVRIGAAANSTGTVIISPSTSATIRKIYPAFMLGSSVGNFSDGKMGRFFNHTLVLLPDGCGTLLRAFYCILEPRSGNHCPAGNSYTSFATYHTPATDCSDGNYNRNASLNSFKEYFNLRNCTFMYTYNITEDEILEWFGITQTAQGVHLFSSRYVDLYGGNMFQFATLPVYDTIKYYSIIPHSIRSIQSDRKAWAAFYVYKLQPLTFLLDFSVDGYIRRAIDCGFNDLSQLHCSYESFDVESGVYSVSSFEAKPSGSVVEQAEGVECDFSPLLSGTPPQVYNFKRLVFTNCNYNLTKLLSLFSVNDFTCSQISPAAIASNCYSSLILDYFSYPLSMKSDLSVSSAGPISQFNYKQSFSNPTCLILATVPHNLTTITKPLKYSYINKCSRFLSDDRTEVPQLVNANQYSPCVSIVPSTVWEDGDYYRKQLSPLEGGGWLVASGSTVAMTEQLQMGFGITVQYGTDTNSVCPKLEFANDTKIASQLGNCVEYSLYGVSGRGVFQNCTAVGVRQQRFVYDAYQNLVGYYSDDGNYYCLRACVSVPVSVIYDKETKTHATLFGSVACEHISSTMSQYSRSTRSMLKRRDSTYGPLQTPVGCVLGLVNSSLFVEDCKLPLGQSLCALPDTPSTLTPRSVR

SMILES | Kd [1] | Kd [2] | Kd [3] | Cell toxicity to MASMCs [4] | Disruption of the SARS-CoV-2 S-RBD/ACE2 interaction in cells [5]
CC(C)=CCC[C@](C)(O[C@@H]1O[C@H](CO[C@@H]2O[C@H](CO)[C@@H](O)[C@H](O)[C@H]2O)[C@@H](O)[C@H](O)[C@H]1O)[C@H]1CC[C@]2(C)[C@@H]1[C@H](O)C[C@@H]1[C@@]3(C)CC[C@H](O[C@@H]4O[C@H](CO)[C@@H](O)[C@H](O)[C@H]4O[C@@H]4O[C@H](CO)[C@@H](O)[C@H](O)[C@H]4O)C(C)(C)[C@@H]3CC[C@]12C [ZZY-9, Ginsenoside Rb1] | 3450 nM | 470 nM | 29700 nM |  | 
CC(C)=CCC[C@](C)(O[C@@H]1O[C@H](CO[C@@H]2OC[C@@H](O)[C@H](O)[C@H]2O)[C@@H](O)[C@H](O)[C@H]1O)[C@H]1CC[C@]2(C)[C@@H]1[C@H](O)C[C@@H]1[C@@]3(C)CC[C@H](O[C@@H]4O[C@H](CO)[C@@H](O)[C@H](O)[C@H]4O[C@@H]4O[C@H](CO)[C@@H](O)[C@H](O)[C@H]4O)C(C)(C)[C@@H]3CC[C@]12C [ZZY-13, Ginsenoside Rb3] | 250 nM | 1000 nM | 2000 nM | no cell toxicity | could disrupt
CC1(C)[C@@H](O[C@H]2O[C@H](C(=O)O)[C@@H](O)[C@H](O)[C@H]2O[C@@H]2O[C@H](C(=O)O)[C@@H](O)[C@H](O)[C@H]2O)CC[C@]2(C)[C@H]3C(=O)C=C4[C@@H]5C[C@@](C)(C(=O)O)CC[C@]5(C)CC[C@@]4(C)[C@]3(C)CC[C@@H]12 [ZZY-44, Glycyrrhizic acid] | 470 nM |  | 66800 nM | no cell toxicity | could disrupt
COc1ccc2cc3[n+](cc2c1OC)CCc1cc2c(cc1-3)OCO2 [ZZY-54, Berberine Chloride] | 7390 nM | 1240 nM | 23900 nM |  | 
